Test results taken from patent US9833444B2 (priority 2013, dated 2017).
Where two headings read alike, the source gives them in different places.

Legend:
[1] = system: MMP-9; type: cell-based, human
[2] = system: MMP-2; type: cell-based, human
[3] = system: TNF-α; type: cell-based, human
[4] = molecular target: recombinant toxin sphingomyelinase D (SMase D) (Loxosceles laeta, UniProt Q8I914); experiment: biochemical; settings: for inhibition at 40 µM: read-out: inhibition of the hydrolytic activity of recombinant toxin on the SM substrate
Chain of recombinant toxin sphingomyelinase D (SMase D) (Q8I914 27-311 limits assumed): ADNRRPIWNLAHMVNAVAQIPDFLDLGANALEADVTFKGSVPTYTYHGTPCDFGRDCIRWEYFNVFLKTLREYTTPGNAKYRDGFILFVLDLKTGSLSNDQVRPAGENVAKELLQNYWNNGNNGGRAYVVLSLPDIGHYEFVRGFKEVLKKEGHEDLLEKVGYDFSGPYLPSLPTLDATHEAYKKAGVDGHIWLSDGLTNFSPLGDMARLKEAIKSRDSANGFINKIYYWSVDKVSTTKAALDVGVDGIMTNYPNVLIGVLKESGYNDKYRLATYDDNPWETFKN

[5] = system: human red blood cells; type: cell-based
[6] = system: TNF receptor; type: cell-based, human
[7] = system: ERK1/2; experiment: Activation of MAPK ERK1/2 signaling pathway in keratinocytes induced by recombinant SMases D, ELISA; type: cell-based, human; settings: compound 40 μM
[8] = molecular target: PLD of C. pseudotuberculosis (Corynebacterium pseudotuberculosis, UniProt P20626); type: biochemical
Chain of PLD of C. pseudotuberculosis (P20626 25-307 limits assumed): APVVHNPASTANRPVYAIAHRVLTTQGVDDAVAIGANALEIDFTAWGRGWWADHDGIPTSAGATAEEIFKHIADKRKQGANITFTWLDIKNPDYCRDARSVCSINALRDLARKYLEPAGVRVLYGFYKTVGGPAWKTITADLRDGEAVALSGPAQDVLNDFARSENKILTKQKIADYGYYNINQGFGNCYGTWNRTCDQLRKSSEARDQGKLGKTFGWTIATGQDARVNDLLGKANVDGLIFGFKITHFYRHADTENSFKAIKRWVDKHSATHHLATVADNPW

[9] = system: human keratinocytes; experiment: cells; settings: Keratinocyte
[10] = system: human keratinocytes; experiment: cells; type: cell-based; settings: Keratinocyte, read-out: inhibition of superoxide production
[11] = system: venom of Loxosceles laeta; type: biochemical; settings: for inhibition of the hydrolytic activity of the venom of L. laeta on the SM substrate: 40 µM
[12] = system: dermonecrotic lesions developed in rabbits; type: in vivo; settings: for histopathological analysis of the skin of rabbits inoculated with the venom: rabbit, in vivo; for reduction of dermonecrotic injury, 24 hours after venom inoculation / inhibition of dermonecrotic injury, 48 hours / inhibition of dermonecrotic injury, 72 hours: rabbits; for reduction of dermonecrotic injury, 24 hours after venom inoculation: compound at three times IC50 (136.2 μM compound 5, 190.2 μM compound 6); for inhibition of dermonecrotic injury, 48 hours / inhibition of dermonecrotic injury, 72 hours: compound at three times IC50
[13] = system: TGF-β1; type: cell-based, human
[14] = Average inhibition of all activities tested (overall efficiency); settings: average over all aspects analyzed
Text: Thus, taking into consideration all the aspects analyzed, compound 5 of the present invention is 61.1% efficient, while compound 6 of this invention is 54.1% efficient in relation to the mechanisms involved in the toxicity of SMases D in the development of loxoscelism.

[15] = system: human red blood cells; type: cell-based; remark: listed apart in the source
[16] = system: human keratinocytes; type: cell-based; settings: compound 40 μM; flow cytometry
[17] = molecular target: SMases of Stahylococcus aureus (Staphylococcus aureus, UniProt P09978); experiment: Hydrolytic activity of SMase of Staphylococcus aureus on sphingomyelin; type: biochemical; settings: compound 40 μM
Chain of SMases of Stahylococcus aureus (P09978 35-330 limits assumed): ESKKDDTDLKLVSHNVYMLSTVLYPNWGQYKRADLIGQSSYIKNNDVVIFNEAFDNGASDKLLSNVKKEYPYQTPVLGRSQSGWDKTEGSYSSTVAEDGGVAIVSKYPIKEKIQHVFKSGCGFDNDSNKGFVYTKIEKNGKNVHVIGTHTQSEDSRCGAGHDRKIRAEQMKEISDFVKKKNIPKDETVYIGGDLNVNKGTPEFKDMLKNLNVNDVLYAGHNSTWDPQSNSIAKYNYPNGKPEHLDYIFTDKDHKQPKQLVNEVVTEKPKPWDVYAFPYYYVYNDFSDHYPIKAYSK

[18] = read-out: viability of human keratinocytes treated with recombinant toxin
[19] = read-out: viability of human keratinocytes treated with venom of L. laeta

SMILES | inhibition of MMP-9 secretion [1] | reduction of MMP-2 secretion [2] | reduction of TNF-α production [3] | IC50 [4] | inhibition mechanism [4] | reduction of the hydrolytic activity of recombinant toxin on substrate LPC [4] | inhibition at 40 µM [4] | reduction of removal of glycophorin C from the surface of human red blood cells [5] | reduction of phosphorylated ERK1/2 [7] | reduction of PLD activity of C. pseudotuberculosis on sphingomyelin [8] | viability at 10 µM [9, 18] | viability at 10 µM [9, 19] | inhibition at 40 µM [10] | reduction of the hydrolytic activity of the venom on substrate LPC [11] | inhibition of the hydrolytic activity of the venom of L. laeta on the SM substrate [11] | histopathological analysis of the skin of rabbits inoculated with the venom [12] | reduction of dermonecrotic injury, 24 hours after venom inoculation [12] | inhibition of dermonecrotic injury, 48 hours [12] | inhibition of dermonecrotic injury, 72 hours [12] | reduction of TGF-β1 production [13] | other results
Cc1[nH]c2ccccc2c1/C=N/NS(=O)(=O)c1ccc(Br)cc1 [Compound 5, 4-bromo-N-[(E)-(2-methyl-1H-indol-3-yl)methyleneamino]benzenosulfonamide] | completely inhibit | 81% | 73.9% | 45.4 ± 1.2 µM | uncompetitive action inhibitors | 38.6% | 45.7% | 92.6% | 65.8% | about 70% | 55.8% | 45.9% | 70.7% | 44.4% | 53% | reduction in the disorganization of the collagen fibers in the dermis, absence of hemorrhage and inflammatory infiltrate | 61.8% | 60% | 56% | 88.3% | reversal of toxin-induced removal of the TNF receptor from the cell surface [6]: 27.7%; efficiency in relation to the mechanisms involved in the toxicity of SMases D (average inhibition of all activities tested) [14]: 61.1%; reduction of binding of the toxin to the red blood cell surface [15]: 96.8%; reduction of binding of SMases present in venom to the surface of human keratinocytes [16]: 63.8%; reduction of binding of recombinant toxin to the surface of human keratinocytes [16]: 54.9%; reduction of hydrolytic activity of SMase of Staphylococcus aureus [17]: efficiently reduced
Cc1cc(OS(=O)(=O)c2ccc(Cl)cc2)cc2c1C(=O)C(=Cc1cccnc1)O2 [Compound 6, 4-methyl-3-oxo-2-(3-pyridylmethylene)benzo[3,4-b]furan-6-yl-4-chlorobenzenesulphonate] | completely inhibit | 98.4% | 61.1% | 63.4 ± 1.1 µM | uncompetitive action inhibitors | 34% | 51% | 88.2% | 80.2% | about 68% | 53.5% | 59.3% | 92.7% | 16% | 22.7% | reduction in the disorganization of the collagen fibers in the dermis, absence of hemorrhage and inflammatory infiltrate | 36% | 45% | 49% | 89.2% | efficiency in relation to the mechanisms involved in the toxicity of SMases D (average inhibition of all activities tested) [14]: 54.1%; reduction of binding of the toxin to the red blood cell surface [15]: 84%; reduction of binding of SMases present in venom to the surface of human keratinocytes [16]: 25.6%; reduction of binding of recombinant toxin to the surface of human keratinocytes [16]: 50.77%; reduction of hydrolytic activity of SMase of Staphylococcus aureus [17]: efficiently reduced
